One may read the melting point as the temperature of the solid-liquid transition.

The compound `Cn1cnnc1-c1cccc(N)c1` registered a melting point of 158 to 159 °C.
For `CC(=O)c1nn(-c2ccccc2[N+](=O)[O-])c(=NC(=O)c2ccccc2)s1`, the melting point worked out at 204 °C.
The figure for `COC1=CC(=O)C(C#N)C(c2ccccc2)C1` (stereo not given) is 167 °C.
In turn, `Nc1ccccc1-n1cccc1` registered a melting point of 94 to 98 °C.
The compound `[O-][N+](=Nc1ccc(N=Nc2ccccc2)cc1)c1ccc(N=Nc2ccc(N=Nc3ccccc3)cc2)cc1` returned a melting point of 253 °C.
The compound `Cc1cccc(C(=O)O)n1` registered a melting point of 130 °C.
The compound `CC1CCS(=O)(=O)C1` (stereo not given) returned a melting point of 1 °C.
As to `ClCc1cc(-c2ccco2)on1`, the melting point was in the range of 47 to 49 °C.
Then `C=CC(=O)OCCCCCCCC(C)C`, with -100 °C; and `Sc1nccc(-c2ccc(Cl)cc2)n1`, with 210 to 214 °C.
On to `CC(=O)Oc1c(C)cc(OCC(O)CNC(C)C)c(C)c1C` (stereo not given), for which the melting point came out at 106 °C.
`c1ccc2c(c1)NC1(CCCC1)N2` had a melting point of 190 °C.
`Cn1c(=O)c(C2=NNC(=O)C2=CCc2ccccc2)c(O)c2ccccc21` registered a melting point of 249 °C.
For the compound `CCc1nn(CCCN2CCN(c3cccc(Cl)c3)CC2)c(=O)n1CCOc1ccccc1`, the melting point came out at 83.5 °C.
With `Ic1ccc(N2CCOCC2)nc1`, the melting point was 133 °C.
`COc1ccc(C#N)c2ccccc12` returned a melting point of 102 °C.
Then `CCCCCCCCCCCCCCCCCCS(=O)(=O)Cl`, with 58 °C; and `Cc1nc([N+](=O)[O-])cn1C(C)C`, with 86 °C; and `Cn1c(S)nnc1-c1cccs1`, with 153 to 156 °C.
In turn, `c1ccc2c(C3CCNCC3)c[nH]c2c1` yielded a melting point of 222 to 223 °C.
The compound `NC(=O)CBr` had a melting point of 89 °C.
In turn, `Fc1c(Cl)cccc1Cl` returned a melting point of 38 °C.
On to `CC(C)[C@H](O)C(=O)O`, for which the melting point lay in the range of 65 to 68 °C.
The figure for `Cc1cc(Cl)c([N+](=O)[O-])cc1[N+](=O)[O-]` is 90 °C; for `O=Cc1c(-c2ccccc2)nn(-c2ccccc2)c1Cl` it is 109 to 110 °C; for `O=c1ccn(C2CC(F)C(CO)O2)c(=O)[nH]1` (stereo not given) it is 186 °C.
The compound `Nc1ccc(S(=O)(=O)NC(=O)c2ccccc2)cc1` returned a melting point of 182 °C.
Compound `C#CCCCCN1C(=O)c2ccccc2C1=O` displayed a melting point of 70 °C.
Compound `Cc1ccc(Sc2ncccc2C(=O)O)cc1` had a melting point of 218 to 221 °C.
For `Cc1ccc2cccc(C)c2n1`, the melting point was 27 °C.
Take `CC(C)=CC1C(C(=O)OCc2coc(Cc3ccccc3)c2)C1(C)C` (stereo not given): the melting point was found to be 56.5 °C.
With `Cc1oc(C(C)(C)C)cc1C(=O)O`, the melting point amounted to 92 °C.
Take `CCCCCCCCC=CCCCCCCCC(=O)OCC`: the melting point is -32 °C.
In turn, `O=c1[nH]c(=O)n(C2CCCO2)cc1F` (stereo not given) came in with a melting point of 172 °C.
Then `O=C(O)c1ccccc1SSc1ccccc1C(=O)O`, with 288 °C; and `CNC(=S)N(C)C`, with 126 to 127 °C; and `CS(=O)(=O)Nc1ccc([N+](=O)[O-])cc1Oc1ccccc1`, with 144 °C.
As for `CC(=O)ON(/C=C1\C(=O)C2(C)CCC1C2(C)C)c1ccccc1` (stereo not given), the melting point lay in the range of 162 to 164 °C.
The compound `Cn1cc(Br)c(CCl)n1` displayed a melting point of 76.5 to 78.5 °C.
The figure for `C=Cc1ccc(Cl)cc1` is 15.9 °C; for `Nc1ccccc1C=Cc1cc(/C=C/c2ccccc2)c(N)cc1N` it is 146 °C.
Then `CCCCCCNC`, with -31 °C; and `CSC(SC)=C(C#N)C#N`, with 82 to 84 °C.
Turning to `c1ccn2cccc2c1`, the melting point stood at 75 °C.
For `CCOC(O)C(OC(C)=O)C(OC(C)=O)C(OC(C)=O)C(COC(C)=O)OC(C)=O` (stereo not given), the melting point was 132 °C.
`CC(=O)Nc1ccc(Br)cc1F` gave a melting point of 156 °C.
Then `CC(C)OC(N)=O`, with 93 °C; and `CC1(C(=O)O)CC2C=CC1C2` (stereo not given), with 80 °C.
Then `CN1CCN(c2cccc(C(=O)O)c2)CC1`, with 187 to 190 °C.
Compound `O=C(O)c1cc(Cl)ccc1F` yielded a melting point of 149 °C.
Compound `CCNc1nc2c(cc1C(=O)OC)c(=O)oc1ccccc12` gave a melting point of 210 °C.
Then `FC(F)(F)c1cc(-c2cccs2)nc2cc(-c3cccs3)nn12`, with 158 °C; and `CC1(C(=O)O)CCC2(C)CCC3(C)C(=CC(=O)C4C5(C)CCC(O)C(C)(C)C5CCC43C)C2C1` (stereo not given), with 296 °C; and `Cc1ccc(S(=O)(=O)CC(=O)O)cc1`, with 118 °C.
`CC(C)(C)OC(=O)NC(Cc1ccncc1)C(=O)O` (stereo not given) displayed a melting point of 225 to 229 °C.
In the case of `Cc1ccc(S(=O)(=O)c2coc(S(N)(=O)=O)c2)cc1`, the melting point was determined as 185 °C.
Regarding `O=[N+]([O-])c1ccc(Oc2c(Cl)cc(Cl)cc2Cl)cc1`, the melting point came to 106 °C.
As for `C=CCc1cc(C(C)=O)ccc1O`, the melting point fell in the range of 115 to 118 °C.
As to `CC1(C)C2CCC1(C)C(NC(=S)Nc1ccccc1)C2NC(=S)Nc1ccccc1` (stereo not given), the melting point was found to be 178 °C.
In turn, `Oc1c(F)c(F)c(F)c2c(F)c(F)c(F)c(F)c12` gave a melting point of 103 to 107 °C.
Then `CCOC(=O)c1c(NC(=O)CCl)sc2c1CCCC2`, with 115 to 117 °C; and `COC(=O)c1ccccc1C(=O)c1cc(C)c(O)c(C)c1`, with 155 to 157 °C.
The compound `c1ccc(-c2c(-c3[nH]c4ccccc4c3-c3ccccc3)[nH]c3ccccc23)cc1` displayed a melting point of 227 °C.
In the case of `O=C1C(=Cc2ccc(O)c(O)c2)Oc2cc(O)ccc21`, the melting point amounted to 303 °C.
The compound `Cc1cc(C)cc(P(c2cc(C)cc(C)c2)c2cc(C)cc(C)c2)c1` showed a melting point of 160 to 162 °C.
Turning to `COc1ccc(OC)c2ccccc12`, the melting point fell in the range of 85 to 86 °C.
`O=C1C(c2cccc3ccccc23)=[N+]([O-])c2cc([N+](=O)[O-])ccc21` registered a melting point of 223 °C.
Consider `CC(CO)c1ccccc1` (stereo not given), for which the melting point is -13 °C.
In turn, `O=c1cc(-c2ccccc2)oc2ccc(Cl)cc12` gave a melting point of 183 to 187 °C.
For the compound `COc1ccc(C2C(=O)c3ccccc3C2=O)cc1`, the melting point was found to be 156 °C.
In the case of `Brc1noc2ncccc12`, the melting point amounted to 135 °C.
Compound `Cc1c(Br)cccc1[N+](=O)[O-]` returned a melting point of 40 °C.
As for `Cc1cc(C)n2nc(N)c(/N=N/c3cc(Cl)ccc3Cl)c2n1`, the melting point stood at 279 °C.
The compound `Cc1ccc(NN=C2C(=O)OC(C)(C)OC2=O)cc1` registered a melting point of 130 °C.
As for `CCCCCCC=CCC(=O)O`, the melting point came to 18 °C.
As to `O=C1[C@H]2CC3=C(CC=CC3)C[C@H]2C(=O)[C@H]2CC3=C(CC=CC3)C[C@@H]12`, the melting point lay within 300 to 302 °C.
Compound `Oc1cccnc1O` displayed a melting point of 245 °C.
`C/C(=N\c1ccc(C(=O)O)c(O)c1)c1c(O)c2ccccc2n(-c2ccccc2)c1=O` registered a melting point of 177 °C.
The figure for `NCCSS(=O)(=O)O` is 191 to 194 °C; for `O=C(O)C(F)(F)C(F)(F)C(F)(F)C(F)(F)C(F)(F)C(F)(F)C(F)(F)C(F)F` it is 67 °C.
`CC(=O)OC1CC2CCC1(C)C2(C)C` (stereo not given): the melting point came out at 29 °C.
Then `CC1CCC(C)(COC(=O)C2C(=O)C3(C)CCC2C3(C)C)C1(C)C` (stereo not given), with 146 °C.
`CC(=O)N[Si](C)(C)C`: the melting point stood at 41 °C.
`O=C(N(Cc1ccccc1)Cc1ccccc1)C(F)(F)C(F)(F)C(F)(F)C(F)(F)C(F)(F)C(F)(F)C(F)(F)C(F)(F)F` gave a melting point of 49 °C.
In turn, `Cn1c(N)c(N=O)c(=O)[nH]c1=O` registered a melting point of 300 °C.
`CN(C)C1(C#N)CCOCC1` showed a melting point of 51 to 52 °C.
`NC(=S)c1ccc(Cl)cc1` came in with a melting point of 127 to 130 °C.
As to `Cn1c(-c2ccccc2)cc2ccccc21`, the melting point came to 99 °C.
As to `CC1(C)OC(=O)C(=Cc2ccc(-c3ccc([N+](=O)[O-])cc3)o2)C(=O)O1`, the melting point is 221 °C.
Compound `OCC1OC(n2cnc3c2N=CNCC3O)CC1O` (stereo not given) showed a melting point of 220 °C.
For the compound `CC(C)(C)c1ccc(-c2nnc(S)n2Cc2ccco2)cc1`, the melting point was in the range of 156 to 158 °C.
`O=C1OC(c2ccccc2)=NC1=Cc1ccc(-c2ccc([N+](=O)[O-])cc2)o1`: the melting point came to 208 °C.
The figure for `Cc1cc(=O)[nH]c2c(/N=N/c3ccc(Cl)cc3)c(N)nn12` is 307 to 308 °C; for `CC1(C)C(=O)N(O)C(C)(C)C(=O)N1O` it is 300 to 303 °C; for `CCOC(=O)c1nnsc1N` it is 124 °C.
Regarding `Cc1ccc(NC(N)=O)cc1`, the melting point was 178 to 181 °C.
The figure for `Cc1cc(C)c2c(=O)n(C)c(S)nc2n1` is 234 to 236 °C; for `Cc1cc(C(C)(C)C)cc(C)c1CC1=NCCN1` it is 131 °C.
The compound `CSC(=NS(=O)(=O)c1ccccc1)SC` registered a melting point of 105 to 107 °C.
`Cc1nc(CO)c(C)o1` returned a melting point of 73 °C.
Regarding `C=Cc1ccc(C)cc1C`, the melting point was -64 °C.
Then `Cc1csc(N)c1C(N)=O`, with 174 °C; and `NS(=O)(=O)c1ccc(SCCCO)c(F)c1`, with 110 °C; and `C#CC1(O)CCC2(C)C3CCC4(C)C(=O)CCC4C3CCC2(C)C1` (stereo not given), with 238 °C.
Take `C#CC(C)OC(=O)Nc1cccc(Cl)c1` (stereo not given): the melting point amounted to 45.5 °C.
As to `OCc1ccc(-c2cc(C(F)(F)F)cc(C(F)(F)F)c2)o1`, the melting point fell in the range of 110 to 113 °C.
For `O=C(O)c1ccccc1-n1cccn1`, the melting point was in the range of 190 to 193 °C.
The figure for `COC(=O)Cc1ccc(OCc2ccccc2)cc1` is 53 to 58 °C; for `C=CC(C)(CCC=C(C)C)OC(C)=O` (stereo not given) it is under 25 °C; for `COc1ccc(/C=N/n2c(S)nnc2C(F)(F)F)cc1` it is 188 °C.

The record behind these values is a melting point compilation (Tetko et al.).
